Assay results reported in US8956996B2, “Method for reducing nitrous oxide emission from soils” (BASF SE, priority 2009, dated 2015).

Columns and labels:
N2O emission from soil [1] = assay: Loss of nitrate and ammonium nitrogen in LiHof soil, pyraclostrobin and boscalid (Example 3); conditions: for Effect on N2O emission from soil (in words): LiHof soil, fertilizer applied 1 day after compound (A); for Loss of NO3-N + NH4-N in mg N/10 g soil in 48 h: soil type LiHof, pyraclostrobin 250 g/ha, boscalid 2.33 g/L, fertilizer 1 day after compound (A), UTC 0.52
N2O emission from soils [2] = assay: Greenhouse trial: N2O emission from potted field soil planted with summer wheat (Example 4); type: in vivo; conditions: for Mean mg N2O-N/m^2: 4 weeks
N2O emission from soil [3] = assay: Loss of nitrate and ammonium nitrogen in soil samples, Conway method, as indirect measure of N2O produced (Example 2); conditions: for Loss of NO3-N + NH4-N in mg N/10 g soil in 48 h: fertilizer 1 day after compound (A)
N2O emission from soils [4] = assay: N2O emission from potted corn after pyraclostrobin seed treatment, NPK fertilizer applied 10 days later (Example 1); type: in vivo, Zea mays

SMILES	Effect on N2O emission from soil (in words) (N2O emission from soil [1])	Loss of NO3-N + NH4-N in mg N/10 g soil in 48 h (N2O emission from soil [1]) [mg N/10 g soil]	Effect on N2O emission from soils (in words) (N2O emission from soils [2]; combined application of compound (A) and compound (B))	Mean mg N2O-N/m^2 (N2O emission from soils [2]; pyraclostrobin 250 g/ha 8 days before the application of the fertilizer (ammonium nitrate 100 kg/ha)) [mg N2O-N/m^2]	Mean mg N2O-N/m^2 (N2O emission from soils [2]; pyraclostrobin 250 g/ha together with the application of the fertilizer (ammonium nitrate 100 kg/ha)) [mg N2O-N/m^2]	Effect on N2O emission from soils (in words) (N2O emission from soils [2]; pyraclostrobin and ammonium nitrate with time lag of 8 days, compared to fertilizer alone or joint application)	Loss of NO3-N + NH4-N in mg N/10 g soil in 48 h (N2O emission from soil [3]; soil type LiHof, UTC 0.54) [mg N/10 g soil]	Loss of NO3-N + NH4-N in mg N/10 g soil in 48 h (N2O emission from soil [3]; soil type Sp 2.1, UTC 0.16) [mg N/10 g soil]	Loss of NO3-N + NH4-N in mg N/10 g soil in 48 h (N2O emission from soil [3]; soil type Sp 2.2, UTC 0.19) [mg N/10 g soil]	Loss of NO3-N + NH4-N in mg N/10 g soil in 48 h (N2O emission from soil [3]; soil type Sp 2.3, UTC 0.38) [mg N/10 g soil]	Loss of NO3-N + NH4-N in mg N/10 g soil in 48 h (N2O emission from soil [3]; soil type Sp 2.4, UTC 0.37) [mg N/10 g soil]	Loss of NO3-N + NH4-N in mg N/10 g soil in 48 h (N2O emission from soil [3]; soil type Sp 5M, UTC 0.27) [mg N/10 g soil]	Loss of NO3-N + NH4-N in mg N/10 g soil in 48 h (N2O emission from soil [3]; soil type Sp 6S, UTC 0.48) [mg N/10 g soil]	Effect on N2O emission from soil (in words) (N2O emission from soil [3]; various types of soil, fertilizer applied 1 day after compound (A))	N2O increase over ambient (N2O emission from soils [4]; seed treatment 5 g/100 kg seeds, 0.3% NPK fertilizer HaKaPhos Blue applied on day 10, peak value on day 2 of three day measurement, N = 14, UTC 190) [ppbv/h]	Effect on N2O emission from soils (in words) (N2O emission from soils [4]; seed treatment, fertilizer applied 10 days after compound (A))
O=C(Nc1ccccc1-c1ccc(Cl)cc1)c1cccnc1Cl [Boscalid, boscalid]	significantly reduced the N2O emission from soil	0.35														
COC(=O)N(OC)c1ccccc1COc1ccn(-c2ccc(Cl)cc2)n1 [Pyraclostrobin, pyraclostrobin]	significantly reduced the N2O emission from soil	0.09	does not result in a reduction of N2O emission from soils	100.9	314.9	significantly reduced	0.06	0.03	0.02	0.18	0.13	0.10	0.21	significantly reduce the N2O emission from soil	107	significantly reduce the N2O emission from soils
